The values that follow come from US11208422B2, “Substituted bridged diazepane derivatives and use thereof as TASK-1 and TASK-3 inhibitors” (Bayer Pharma Aktiengesellschaft, priority 2017, dated 2021).

Common to all, as to assay type: cell-based
In test [1] the target is T1, recombinant TASK-1 (Homo sapiens (Human), UniProt O14649). The test can be described thus: Two-electrode voltage clamp analysis of human TASK-1 channel expressed in Xenopus laevis oocytes. The following applies: TASK-1 IC50, human TASK-1 in Xenopus laevis oocytes. Here is the method: (§1) Xenopus laevis oocytes were selected as described elsewhere by way of illustration [Decher et al., FEBS Lett. 492, 84-89 (2001)]. […] For the electrophysiological analysis of the channel proteins expressed in the oocytes, the two-electrode voltage clamp technique [Stühmer, Methods Enzymol. 207, 319-339 (1992)] was used. The measurements were conducted as described [Decher et al., FEBS Lett. 492, 84-89 (2001)] at room temperature (21-22° C.) using a Turbo TEC 10CD amplifier (NPI), recorded at 2 kHz and filtered with 0.4 kHz. Substance administration was performed using a gravitation-driven perfusion system. Here, the oocyte is located in a measuring chamber and exposed to the solvent stream of 10 ml/min. The level in the measuring chamber is monitored and regulated by sucking off the solution using a peristaltic pump.
T1 sequence (O14649 whole entry, the tested form may be a part): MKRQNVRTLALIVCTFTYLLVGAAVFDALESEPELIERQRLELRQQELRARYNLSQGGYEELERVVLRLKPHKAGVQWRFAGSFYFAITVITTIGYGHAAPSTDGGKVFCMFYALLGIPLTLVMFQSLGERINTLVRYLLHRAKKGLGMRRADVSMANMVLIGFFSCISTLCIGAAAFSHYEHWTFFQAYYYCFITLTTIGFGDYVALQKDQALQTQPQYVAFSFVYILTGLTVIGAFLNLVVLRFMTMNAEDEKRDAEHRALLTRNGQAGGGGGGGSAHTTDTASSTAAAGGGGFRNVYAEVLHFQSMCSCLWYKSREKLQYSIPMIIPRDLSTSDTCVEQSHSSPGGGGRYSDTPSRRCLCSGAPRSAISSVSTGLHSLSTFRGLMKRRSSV
(Two-electrode voltage clamp is typically applied to oocytes expressing channels or transporters.)

Test [2] concerns the target T2, recombinant TASK-3 (Homo sapiens (Human), UniProt Q9NPC2). The test can be described thus: Two-electrode voltage clamp analysis of human TASK-3 channel expressed in Xenopus laevis oocytes. The conditions noted are these: TASK-3 IC50, human TASK-3 in Xenopus laevis oocytes. The procedure: as §1
Test [3] addresses T1, recombinant TASK-1. The experiment in a line: Inhibition of recombinant TASK-1 in stably transfected CHO cells (KCl-induced depolarization, voltage-sensitive dye, FLIPR). The conditions noted are these: depolarization induced by 40 mM potassium chloride, some mean values from multiple determinations. The procedure:
(§2) The compounds of the invention were tested here with administration of 40 mM of potassium chloride in the presence of a voltage-sensitive dye using the method described in detail in the following references [Whiteaker et al., Validation of FLIPR membrane potential dye for high-throughput screening of potassium channel modulators, J. Biomol. Screen. 6 (5), 305-312 (2001); Molecular Devices FLIPR Application Note: Measuring membrane potential using the FLIPR® membrane potential assay kit on Fluorometric Imaging Plate Reader (FLIPR®) systems, http://www.moleculardevices.com/reagents-supplies/assay-kits/ion-channels/flipr-membrane-potential-assay-kits]. The activity of the test substances was determined as their ability to inhibit a depolarization induced in the recombinant cells by 40 mM potassium chloride. The concentration which can block half of this depolarization is referred to as IC50.

Test [4] addresses T2, recombinant TASK-3. The test can be described thus: Inhibition of recombinant TASK-3 in stably transfected CHO cells (KCl-induced depolarization, voltage-sensitive dye, FLIPR). The conditions noted are these: depolarization induced by 40 mM potassium chloride, some mean values from multiple determinations. The procedure: as §2

Molecules are shown by their SMILES.

T2 sequence (Q9NPC2 whole entry): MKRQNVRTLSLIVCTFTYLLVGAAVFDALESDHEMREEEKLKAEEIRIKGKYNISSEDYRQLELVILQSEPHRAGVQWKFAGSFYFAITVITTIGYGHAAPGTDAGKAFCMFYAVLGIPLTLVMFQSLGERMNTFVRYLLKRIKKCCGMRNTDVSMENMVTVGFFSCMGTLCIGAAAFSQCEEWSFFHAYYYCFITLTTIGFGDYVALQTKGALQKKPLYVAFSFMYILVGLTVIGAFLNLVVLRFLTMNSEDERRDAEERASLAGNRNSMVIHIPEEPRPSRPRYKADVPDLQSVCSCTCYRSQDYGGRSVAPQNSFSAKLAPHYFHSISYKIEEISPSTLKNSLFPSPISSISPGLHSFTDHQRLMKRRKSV

Turning to `COc1ccc(F)c(C(=O)N2C3CCN(Cc4c(-c5ccc(Cl)cc5)nc5ccccn45)CC2COC3)n1` (single isomer, unassigned) [Example 11], the IC50 came to 11.4 ± 2.2 nM in test [1], 4.8 ± 0.4 nM in test [2], 113 nM in test [3] and 1.1 nM in test [4].

Turning to `COc1ccc(F)c(C(=O)N2C3CCN(Cc4c(-c5ccc(Cl)cc5)nc5ccccn45)CC2COC3)n1` (single isomer, unassigned) [Example 12], the half-inhibitory concentration (IC50) in test [1] is 17.6 ± 2.2 nM; in test [2], 13 ± 0.9 nM; in test [3], 60.5 nM; in test [4] it was 2.5 nM.

Take `COc1ccc(F)c(C(=O)N2C3CCC2CN(Cc2c(-c4ccc(Cl)cn4)nc4ccccn24)CC3)n1` (single isomer, unassigned) [Example 15, [3-{[2-(5-Chloropyridin-2-yl)imidazo[1,2-a]pyridin-3-yl]methyl}-3,9-diazabicyclo[4.2.1]non-9-yl](3-fluoro-6-methoxypyridin-2-yl)methanone]: the IC50 in test [1] was 7.54 ± 1.4 nM; in test [2], 15.5 ± 1.5 nM; in test [3], 250 nM; in test [4] it was 7.3 nM.

For the compound `O=C(c1ccccc1F)N1CCC2CCC1CN2Cc1c(-c2ccc(Cl)cn2)nc2ncccn12` (centres unmarked) [Example 31], the IC50 is 910 nM in test [3] and 47 nM in test [4].

Turning to `COc1cccc(C(=O)N2CCC3CCC2CN3Cc2c(-c3ccc(Cl)cc3)nc3ncccn23)n1` (centres unmarked) [Example 32], the IC50 in test [3] stood at 130 nM; in test [4] it was 4.1 nM.

Regarding `COc1ccc(F)c(C(=O)N2CCC3CCC2CN3Cc2c(-c3ccc(Cl)cc3)nc3ncccn23)n1` (centres unmarked) [Example 33], the IC50 in test [3] came to 2600 nM; in test [4] it was 110 nM.

In the case of `COc1ccc(Cl)c(C(=O)N2CCC3CCC2CN3Cc2c(-c3ccc(Cl)cc3)nc3ncccn23)n1` (centres unmarked) [Example 34], the IC50 is 4100 nM in test [3] and 200 nM in test [4].

`Nc1nonc1C(=O)N1CCC2CCC1CN2Cc1c(-c2ccc(Cl)cc2)nc2ncccn12` (centres unmarked) [Example 35]: the concentration for half-maximal inhibition (IC50) in test [3] came out at 24000 nM; in test [4] it was 500 nM.

`O=C(c1ccccc1F)N1CCC2CCC1CN2Cc1c(-c2ccc(Cl)cc2)nc2ccccn12` (centres unmarked) [Example 36]: the IC50 amounted to 30000 nM in test [3] and 1000 nM in test [4].

Regarding `COc1cccc(C(=O)N2CCC3CCC2CN3Cc2c(-c3ccc(Cl)cc3)nc3ccccn23)n1` (centres unmarked) [Example 37], the figures for the IC50 in test [3] and in test [4] were 30000 nM and 1000 nM, respectively.

Regarding `COc1ccc(F)c(C(=O)N2CCC3CCC2CN3Cc2c(-c3ccc(Cl)cc3)nc3ccccn23)n1` (centres unmarked) [Example 38], the concentration for half-maximal inhibition (IC50) in test [3] was 250 nM; in test [4] it was 4 nM.

Regarding `COc1ccc(Cl)c(C(=O)N2CCC3CCC2CN3Cc2c(-c3ccc(Cl)cc3)nc3ccccn23)n1` (centres unmarked) [Example 39], the values for the IC50 in test [3] and in test [4] were 370 nM and 13 nM, respectively.

As for `Nc1nonc1C(=O)N1CCC2CCC1CN2Cc1c(-c2ccc(Cl)cc2)nc2ccccn12` (centres unmarked) [Example 40], the half-maximal inhibitory concentration (IC50) in test [3] turned out to be 3300 nM; in test [4], 29 nM.

As to `COc1cccc(C(=O)N2CCC3CCC2CN3Cc2c(-c3ccc(C(C)C)cc3)nc3ncccn23)n1` (centres unmarked) [Example 41], the IC50 is 2200 nM in test [3] and 160 nM in test [4].

For the compound `COc1ccc(Cl)c(C(=O)N2CCC3CCC2CN3Cc2c(-c3ccc(C(C)C)cc3)nc3ncccn23)n1` (centres unmarked) [Example 43], the IC50 in test [3] is 2500 nM; in test [4], 250 nM.

On to `CC(C)c1ccc(-c2nc3ncccn3c2CN2CC3CCC2CCN3C(=O)c2cccc(OC(F)F)n2)cc1` (centres unmarked) [Example 45], for which the IC50 came to 2900 nM in test [3] and 170 nM in test [4].

`CC(C)c1ccc(-c2nc3ncccn3c2CN2CC3CCC2CCN3C(=O)c2ccccc2F)cc1` (centres unmarked) [Example 46]: the IC50 in test [3] turned out to be 16000 nM; in test [4], 1000 nM.

`CC(C)c1ccc(-c2nc3ncccn3c2CN2CC3CCC2CCN3C(=O)c2ccccc2F)cc1` (centres unmarked) [Example 47]: the figures for the IC50 in test [3] and in test [4] were 3100 nM and 180 nM, respectively.

Regarding `COc1cccc(C(=O)N2CCC3CCC2CN3Cc2c(-c3ccc(C(C)C)cc3)nc3ncccn23)n1` (centres unmarked) [Example 48], the results for the IC50 in test [3] and in test [4] were 12000 nM and 430 nM, respectively.

In the case of `COc1ccc(F)c(C(=O)N2CCC3CCC2CN3Cc2c(-c3ccc(C(C)C)cc3)nc3ncccn23)n1` (centres unmarked) [Example 49], the figures for the IC50 in test [3] and in test [4] were 5500 nM and 540 nM, respectively.

`COc1ccc(Cl)c(C(=O)N2CCC3CCC2CN3Cc2c(-c3ccc(C(C)C)cc3)nc3ncccn23)n1` (centres unmarked) [Example 50]: the half-inhibitory concentration (IC50) was 2500 nM in test [3] and 440 nM in test [4].

For the compound `CC(C)c1ccc(-c2nc3ncccn3c2CN2CC3CCC2CCN3C(=O)c2cccc(OC(F)F)n2)cc1` (centres unmarked) [Example 51], the IC50 in test [3] is 1100 nM; in test [4], 110 nM.

On to `CC(C)c1ccc(-c2nc3ncccn3c2CN2CC3CCC2CCN3C(=O)C2CCCC2)cc1` (centres unmarked) [Example 52], for which the values for the half-maximal inhibitory concentration (IC50) in test [3] and in test [4] were 3800 nM and 140 nM, respectively.

As for `COc1ccc(F)c(C(=O)N2CCC3CCC(C2)N3Cc2c(-c3ccc(C(C)C)cc3)nc3ncccn23)n1` (centres unmarked) [Example 53], the IC50 in test [3] worked out at 1300 nM; in test [4], 380 nM.

`COc1ccc(Cl)c(C(=O)N2CCC3CCC(C2)N3Cc2c(-c3ccc(C(C)C)cc3)nc3ncccn23)n1` (centres unmarked) [Example 54]: the IC50 was found to be 780 nM in test [3] and 290 nM in test [4].

For `COc1cccc(C(=O)N2CCC3CCC(C2)N3Cc2c(-c3ccc(C(C)C)cc3)nc3ncccn23)n1` (centres unmarked) [Example 55], the half-inhibitory concentration (IC50) in test [3] amounted to 4000 nM; in test [4], 1000 nM.

As for `CC(C)c1ccc(-c2nc3ncccn3c2CN2C3CCC2CN(C(=O)c2cccc(OC(F)F)n2)CC3)cc1` (centres unmarked) [Example 56], the IC50 in test [3] was found to be 8500 nM; in test [4], 1000 nM.

On to `CC(C)c1ccc(-c2nc3ncccn3c2CN2C3CCC2CN(C(=O)C2CCCC2)CC3)cc1` (centres unmarked) [Example 57], for which the IC50 in test [3] stood at 6200 nM; in test [4], 2000 nM.

In the case of `COc1ccc(F)c(C(=O)N2CCC3CCC(C2)N3Cc2c(-c3ccc(C(C)C)cc3)nc3ncccn23)n1` (centres unmarked) [Example 58], the IC50 in test [3] was 2900 nM; in test [4], 920 nM.

Take `COc1ccc(Cl)c(C(=O)N2CCC3CCC(C2)N3Cc2c(-c3ccc(C(C)C)cc3)nc3ncccn23)n1` (centres unmarked) [Example 59]: the IC50 in test [3] is 1100 nM; in test [4] it was 680 nM.

Regarding `COc1cccc(C(=O)N2CCC3CCC(C2)N3Cc2c(-c3ccc(C(C)C)cc3)nc3ncccn23)n1` (centres unmarked) [Example 60], the IC50 in test [3] is 5200 nM; in test [4] it was 1000 nM.

`CC(C)c1ccc(-c2nc3ncccn3c2CN2C3CCC2CN(C(=O)c2cccc(OC(F)F)n2)CC3)cc1` (centres unmarked) [Example 61]: the IC50 was found to be 9400 nM in test [3] and 1000 nM in test [4].

For the compound `CC(C)c1ccc(-c2nc3ncccn3c2CN2C3CCC2CN(C(=O)C2CCCC2)CC3)cc1` (centres unmarked) [Example 62], the IC50 in test [3] came to 8400 nM; in test [4] it was 1000 nM.

As to `CC(C)c1ccc(-c2nc3ncccn3c2CN2C3CCC2CN(C(=O)c2ccccc2F)CC3)cc1` (centres unmarked) [Example 63], the IC50 in test [3] was found to be 8400 nM; in test [4] it was 800 nM.

For the compound `CC(C)c1ccc(-c2nc3ncccn3c2CN2C3CCC2CN(C(=O)c2ccccc2F)CC3)cc1` (centres unmarked) [Example 64], the half-inhibitory concentration (IC50) in test [3] came to 7200 nM; in test [4], 1800 nM.

Consider `O=C(c1cccc(OC(F)(F)F)n1)N1CCC2CCC1CN2Cc1c(-c2ccc(Cl)cc2)nc2ncccn12` (centres unmarked) [Example 65], for which the figures for the IC50 in test [3] and in test [4] were 1400 nM and 220 nM, respectively.

For `O=C(c1cccc(OC(F)(F)F)n1)N1CCC2CCC1CN2Cc1c(-c2ccc(Cl)cc2)nc2ncccn12` (centres unmarked) [Example 66], the half-maximal inhibitory concentration (IC50) in test [3] was found to be 180 nM; in test [4], 19 nM.

Take `O=C(c1cccc(OC(F)F)n1)N1CCC2CCC1CN2Cc1c(-c2ccc(Cl)cc2)nc2ncccn12` (centres unmarked) [Example 67]: the IC50 in test [3] was found to be 3400 nM; in test [4] it was 370 nM.

`O=C(c1cccc(OC(F)F)n1)N1CCC2CCC1CN2Cc1c(-c2ccc(Cl)cc2)nc2ncccn12` (centres unmarked) [Example 68]: the IC50 is 230 nM in test [3] and 31 nM in test [4].

For `COc1ccc(F)c(C(=O)N2C3CCC2CN(Cc2c(-c4ccc(C(C)C)cc4)nc4ncccn24)CC3)n1` (centres unmarked) [Example 102], the figures for the IC50 in test [3] and in test [4] were 170 nM and 36 nM, respectively.

Regarding `COc1ccc(F)c(C(=O)N2C3CCC2CN(Cc2c(-c4ccc(C(C)C)cc4)nc4ncccn24)CC3)n1` (centres unmarked) [Example 103], the figures for the IC50 in test [3] and in test [4] were 1400 nM and 200 nM, respectively.

As for `COc1cccc(C(=O)N2C3CCC2CN(Cc2c(-c4ccc(C(C)C)cc4)nc4ncccn24)CC3)n1` (centres unmarked) [Example 104], the half-maximal inhibitory concentration (IC50) in test [3] is 600 nM; in test [4] it was 31 nM.

With `COc1cccc(C(=O)N2C3CCC2CN(Cc2c(-c4ccc(C(C)C)cc4)nc4ncccn24)CC3)n1` (centres unmarked) [Example 105], the 50% inhibitory concentration (IC50) in test [3] was determined as 3700 nM; in test [4], 370 nM.

For orientation: IC50 means the concentration that gives 50% inhibition.
